Experiment [1] has as its target T1, human cannabinoid receptor type 1 (Homo sapiens, UniProt P21554).
T1 construct: purchased Perkin Elmer RBHCB1M; host or cells: HEK 293 EBNA cells
The experiment in a line: Human CB1 Radioligand Binding Assay (basis of selectivity, CB2 vs. CB1). As to conditions: CB1: HEK 293 EBNA cells expressing human CB1; CB2: CHO CB2 membranes. The protocol: 2. Human CB1 Radioligand Binding Assay
The incubation buffer was composed of 50 mM Tris-HCl pH 7.4, 2.5 mM EDTA, 5 mM MgCl2, 5.0 mg/ml fatty acid free BSA and the wash buffer was composed of 50 mM Tris-HCl pH 7.4, 2.5 mM EDTA, 5 mM MgCl2, 0.5 mg/ml fatty acid free BSA.

Experiment [2] has as its target T2, human cannabinoid receptor type 2 (Homo sapiens, UniProt P34972).
T2 construct: expressed in transfected cells; membrane preparation
The experiment can be described thus: Human CB2 Radioligand Binding Assay. As to conditions: membranes from stably transfected CHO CB2 cells. The essentials: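 Filtration competition binding on membranes from CHO cells stably expressing human CB2, with [3H]CP-55,940 at its lot-specific Kd, in 50 mM Tris-HCl pH 7.4, EGTA, MgCl2, 5 mg/ml BSA, 1% DMSO; 90 min at 30° C. Compounds at 10 uM single point or dose-response; bound radioactivity by scintillation, 100 nM CP-55,940 as 100% efficacy.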

Setting [3] is: competition with [3H] CP-55,940, read-out: CB2 Ligand Binding Asssay EC50.
The mark [4] stands for this setting: CB2 Ligand Binding Asssay EC50, competition with [3H] CP-55,940.

Results on 31 compounds are retold here after patent US20090209536A1, “AMINOQUINAZOLINE CANNABINOID RECEPTOR MODULATORS FOR TREATMENT OF DISEASE” (KALYPSYS, INC., priority 2007, published 2009).

Where two headings read alike, the source gives them in different places.

By EC50 is commonly meant the concentration giving half of the maximal effect.

T1 sequence (P21554 whole entry): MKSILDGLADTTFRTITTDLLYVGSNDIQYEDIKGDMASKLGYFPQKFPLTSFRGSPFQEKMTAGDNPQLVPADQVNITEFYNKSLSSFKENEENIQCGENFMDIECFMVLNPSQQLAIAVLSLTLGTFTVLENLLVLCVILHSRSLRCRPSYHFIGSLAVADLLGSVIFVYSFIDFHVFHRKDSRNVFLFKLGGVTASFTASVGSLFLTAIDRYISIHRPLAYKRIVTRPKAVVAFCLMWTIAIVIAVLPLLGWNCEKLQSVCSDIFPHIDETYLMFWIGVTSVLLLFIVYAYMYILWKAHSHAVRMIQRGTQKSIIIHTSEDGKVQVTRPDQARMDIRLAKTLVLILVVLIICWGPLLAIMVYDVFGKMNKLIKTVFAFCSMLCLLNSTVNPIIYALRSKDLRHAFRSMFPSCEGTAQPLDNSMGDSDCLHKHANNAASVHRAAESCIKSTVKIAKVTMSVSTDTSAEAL
T2 sequence (P34972 whole entry): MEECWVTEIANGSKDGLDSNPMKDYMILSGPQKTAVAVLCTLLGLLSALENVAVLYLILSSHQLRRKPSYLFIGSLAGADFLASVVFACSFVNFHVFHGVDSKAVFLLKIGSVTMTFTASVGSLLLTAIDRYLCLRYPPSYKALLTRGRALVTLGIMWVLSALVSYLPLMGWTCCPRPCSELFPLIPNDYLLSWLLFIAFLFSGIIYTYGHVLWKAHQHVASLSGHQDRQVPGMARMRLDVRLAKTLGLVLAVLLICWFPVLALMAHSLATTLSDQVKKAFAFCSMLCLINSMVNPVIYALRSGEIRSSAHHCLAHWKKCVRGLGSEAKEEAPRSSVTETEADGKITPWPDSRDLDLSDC

Turning to `CN1CCN(c2nc(-c3ccccc3Cl)nc3c(Cl)cccc23)CC1` [Example 228, 8-Chloro-2-(2-chlorophenyl)-4-(4-methylpiperazin-1-yl)quinazoline], in experiment [1], the “Selectivity, CB2 vs. CB1” value is “− (− indicates ≦ 10−fold)”. Moreover, the EC50 in experiment [2] (setting [3]) was above 1000 nM.

Regarding `CN1CCN(c2nc(C3CCCCC3)nc3ccccc23)CC1` [Example 33, 2-Cyclohexyl-4-(4-methylpiperazin-1-yl)quinazoline], in experiment [1], the “Selectivity, CB2 vs. CB1” value was “− (− indicates ≦ 10−fold)”. Moreover, the EC50 in experiment [2] (setting [3]) is below 1000 nM.

With `CC(C)(C)c1ccc(-c2nc(Nc3ccc(F)cc3F)c3ccccc3n2)cc1` [Example 115, 2-(4-tert-Butylphenyl)-N-(2,4-difluorophenyl)quinazolin-4-amine], the “Selectivity, CB2 vs. CB1” value in experiment [1] is “− (− indicates ≦ 10−fold)”. Also, the EC50 in experiment [2] (setting [3]) was above 1000 nM.

With `CN1CCN(c2nc(-c3ccc(Cl)cc3)nc3ccc(Cl)cc23)CC1` [Example 212, 6-Chloro-2-(4-chlorophenyl)-4-(4-methylpiperazin-1-yl)quinazoline], the “Selectivity, CB2 vs. CB1” value in experiment [1] is “− (− indicates ≦ 10−fold)”. For the same compound, in experiment [2] (setting [3]), the EC50 was above 1000 nM.

Consider `CCc1ccc2nc(-c3ccccc3Cl)nc(N3CCCCC3)c2c1` [Example 175, 2-(2-Chlorophenyl)-6-ethyl-4-(piperidin-1-yl)quinazoline], for which the “Selectivity, CB2 vs. CB1” value in experiment [1] is reported as “− (− indicates ≦ 10−fold)”. Moreover, the EC50 in experiment [2] (setting [3]) is below 1000 nM.

For the compound `O=S(=O)(NCc1nc(NC2CCCC2)c2ccccc2n1)c1cccc2ccccc12` [Example 305, N-((4-(Cyclopentylamino)quinazolin-2-yl)methyl)naphthalene-1-sulfonamide], the “Selectivity, CB2 vs. CB1” value in experiment [1] is “− (− indicates ≦ 10−fold)”. Further, in experiment [2] (setting [3]), the EC50 was below 1000 nM.

With `COC(CN(C)c1nc(-c2ccccc2Cl)nc2ccccc12)OC` [Example 229, 2-(2-Chlorophenyl)-N-(2,2-dimethoxyethyl)-N-methylquinazolin-4-amine], in experiment [1], the “Selectivity, CB2 vs. CB1” value is reported as “− (− indicates ≦ 10−fold)”. Moreover, in experiment [2] (setting [3]), the EC50 was above 1000 nM.

Regarding `CCOC(=O)N1CCN(c2nc(-c3ccccc3Cl)nc3cc(C(=O)OC)ccc23)CC1` [Example 317, Methyl 2-(2-chlorophenyl)-4-(4-(ethoxycarbonyl)piperazin-1-yl)quinazoline-7-carboxylate], in experiment [1], the “Selectivity, CB2 vs. CB1” value was “− (− indicates ≦ 10−fold)”. For the same compound, the EC50 in experiment [2] (setting [3]) is above 1000 nM.

Turning to `Fc1ccc(-c2nc(N3CCCCC3)c3ccccc3n2)c(F)c1` [Example 23, 2-(2,4-Difluorophenyl)-4-(piperidin-1-yl)quinazoline], the “Selectivity, CB2 vs. CB1” value in experiment [1] is given as “− (− indicates ≦ 10−fold)”. Besides, in experiment [2] (setting [3]), the EC50 was above 1000 nM.

On to `CC(C)(C)c1ccc(-c2nc(Nc3ccccc3Cl)c3ccccc3n2)cc1` [Example 133, 2-(4-tert-Butylphenyl)quinazolin-4-yl 2-chlorophenylamine], for which the “Selectivity, CB2 vs. CB1” value in experiment [1] is “− (− indicates ≦ 10−fold)”. Moreover, the EC50 in experiment [2] (setting [3]) is above 1000 nM.

For `FC(F)(F)N1CCN(c2nc(-c3ccccc3Cl)nc3ccccc23)CC1` [Example 106, 2-(2-Chlorophenyl)-4-(4-(trifluoromethyl)piperazin-1-yl)quinazoline], in experiment [1], the “Selectivity, CB2 vs. CB1” value is on record as “+ (+ indicates > 10−fold)”. The EC50 in experiment [2] (setting [3]) is below 1000 nM.

Regarding `CC(=O)N1CCN(c2nc(-c3ccc(C(C)(C)C)cc3)nc3ccc(Cl)cc23)CC1` [Example 277, 1-(4-(2-(4-tert-Butylphenyl)-6-chloroquinazolin-4-yl)piperazin-1-yl)ethanone], in experiment [1], the “Selectivity, CB2 vs. CB1” value was “− (− indicates ≦ 10−fold)”. In experiment [2] (setting [3]), the EC50 is above 1000 nM.

On to `CCNC(=O)N1CCN(c2nc(-c3ccccc3Cl)nc3ccccc23)CC1` [Example 87, 4-(2-(2-chlorophenyl)quinazolin-4-yl)-N-ethylpiperazine-1-carboxamide], for which, in experiment [1], the “Selectivity, CB2 vs. CB1” value was “− (− indicates ≦ 10−fold)”. Also, the EC50 in experiment [2] (setting [3]) was above 1000 nM.

With `CCS(=O)(=O)N1CCN(c2nc(-c3ccccc3Cl)nc3ccccc23)CC1` [Example 85, 2-(2-Chlorophenyl)-4-(4-(ethylsulfonyl)piperazin-1-yl)quinazoline], in experiment [1], the “Selectivity, CB2 vs. CB1” value is recorded as “− (− indicates ≦ 10−fold)”. The EC50 in experiment [2] (setting [4]) was above 1000 nM.

As to `CC(=O)N1CCN(c2nc(-c3ccccc3F)nc3cccc(F)c23)CC1` [Example 280, 1-(4-(5-Fluoro-2-(2-fluorophenyl)quinazolin-4-yl)piperazin-1-yl)ethanone], in experiment [1], the “Selectivity, CB2 vs. CB1” value is recorded as “+ (+ indicates > 10−fold)”. Moreover, the EC50 in experiment [2] (setting [3]) was below 1000 nM.

Consider `Clc1ccc(-c2nc(NCC3CC3)c3ccccc3n2)c(Cl)c1` [Example 30, Cyclopropylmethyl[2-(2,4-dichlorophenyl)quinazolin-4-yl]amine], for which the “Selectivity, CB2 vs. CB1” value in experiment [1] was “+ (+ indicates > 10−fold)”. This compound had an EC50 in experiment [2] (setting [4]) above 1000 nM.

For `CC(C)(C)c1ccc2c(N3CCCC3)nc(Nc3cccc(Cl)c3)nc2c1` [Example 290, 7-tert-Butyl-N-(3-chlorophenyl)-4-(pyrrolidin-1-yl)quinazolin-2-amine], the “Selectivity, CB2 vs. CB1” value in experiment [1] is recorded as “+ (+ indicates > 10−fold)”. Besides, the EC50 in experiment [2] (setting [3]) was below 1000 nM.

For `C[C@@H]1CN(c2nc(-c3ccccc3Cl)nc3ccccc23)C[C@H](C)N1` [Example 77, 2-(2-Chlorophenyl)-4-((3S,5R)-3,5-dimethylpiperazin-1-yl)quinazoline], the “Selectivity, CB2 vs. CB1” value in experiment [1] was “− (− indicates ≦ 10−fold)”. For the same compound, in experiment [2] (setting [3]), the EC50 is above 1000 nM.

Turning to `CN1CCN(c2nc(-c3ccc(C(F)(F)F)cc3)nc3ccccc23)CC1` [Example 42, 4-(4-Methylpiperazin-1-yl)-2-(4-(trifluoromethyl)phenyl)quinazoline], the “Selectivity, CB2 vs. CB1” value in experiment [1] was “+ (+ indicates > 10−fold)”. Moreover, the EC50 in experiment [2] (setting [3]) was below 1000 nM.

With `c1ccc2c(N3CCCCC3)nc(C3CCCC3)nc2c1` [Example 136, 2-Cyclopentyl-4-piperidin-1-ylquinazoline], the “Selectivity, CB2 vs. CB1” value in experiment [1] is on record as “− (− indicates ≦ 10−fold)”. Besides, the EC50 in experiment [2] (setting [3]) is above 1000 nM.

Take `c1ccc2c(N3CCOCC3)nc(C3CCCC3)nc2c1` [Example 137, 2-Cyclopentyl-4-morpholin-4-ylquinazoline]: the “Selectivity, CB2 vs. CB1” value in experiment [1] was “− (− indicates ≦ 10−fold)”. For the same compound, the EC50 in experiment [2] (setting [3]) is above 1000 nM.

`COC(=O)c1ccc2nc(-c3ccccc3Cl)nc(Nc3cccc(OC(C)C)c3)c2c1` [Example 327, Methyl 2-(2-chlorophenyl)-4-(3-isopropoxyphenylamino)quinazoline-6-carboxylate]: in experiment [1], the “Selectivity, CB2 vs. CB1” value was “− (− indicates ≦ 10−fold)”. The EC50 in experiment [2] (setting [3]) was above 1000 nM.

On to `CCOC(=O)N1CCN(c2nc(-c3ccccc3Cl)nc3cccc(C)c23)CC1` [Example 255, Ethyl 4-(2-(2-chlorophenyl)-5-methylquinazolin-4-yl)piperazine-1-carboxylate], for which the “Selectivity, CB2 vs. CB1” value in experiment [1] is “+ (+ indicates > 10−fold)”. Moreover, the EC50 in experiment [2] (setting [3]) is below 1000 nM.

With `O=S(=O)(NCc1nc(Nc2ccccc2)c2ccccc2n1)c1cccc2ccccc12` [Example 302, N-((4-(Phenylamino)quinazolin-2-yl)methyl)naphthalene-1-sulfonamide], the “Selectivity, CB2 vs. CB1” value in experiment [1] was “− (− indicates ≦ 10−fold)”. Moreover, in experiment [2] (setting [3]), the EC50 is above 1000 nM.

For `COc1ccc2c(N3CCCC3)nc(C3CCCCC3)nc2c1` [Example 159, 2-Cyclohexyl-7-methoxy-4-(pyrrolidin-1-yl)quinazoline], the “Selectivity, CB2 vs. CB1” value in experiment [1] is “+ (+ indicates > 10−fold)”. Also, the EC50 in experiment [2] (setting [3]) is above 1000 nM.

For `Clc1ccc(-c2nc(NCc3ccccc3)c3ccccc3n2)cc1` [Example 121, N-Benzyl-2-(4-chlorophenyl)quinazolin-4-amine], the “Selectivity, CB2 vs. CB1” value in experiment [1] is on record as “− (− indicates ≦ 10−fold)”. For the same compound, the EC50 in experiment [2] (setting [3]) was above 1000 nM.

In the case of `CCCNC(=O)N1CCN(c2nc(-c3ccccc3Cl)nc3ccccc23)CC1` [Example 91, 4-(2-(2-Chlorophenyl)quinazolin-4-yl)-N-propylpiperazine-1-carboxamide], the “Selectivity, CB2 vs. CB1” value in experiment [1] was “− (− indicates ≦ 10−fold)”. The EC50 in experiment [2] (setting [4]) was above 1000 nM.

For the compound `Clc1ccc(-c2nc(N3CCCC3)c3cc(Cl)ccc3n2)cc1` [Example 209, 6-Chloro-2-(4-chlorophenyl)-4-(pyrrolidin-1-yl)quinazoline], the “Selectivity, CB2 vs. CB1” value in experiment [1] is “− (− indicates ≦ 10−fold)”. Further, the EC50 in experiment [2] (setting [3]) is above 1000 nM.

`OC1(c2ccc(Cl)cc2)CCN(c2nc(-c3ccccc3Cl)nc3ccccc23)CC1` [Example 66, 4-(4-Chlorophenyl)-1-[2-(2-chlorophenyl)quinazolin-4-yl]piperidin-4-ol]: the “Selectivity, CB2 vs. CB1” value in experiment [1] is reported as “− (− indicates ≦ 10−fold)”. Besides, the EC50 in experiment [2] (setting [3]) was below 1000 nM.

As for `COc1cccc2nc(-c3ccccc3Cl)nc(N3CCCC3)c12` [Example 245, 2-(2-Chlorophenyl)-5-methoxy-4-(pyrrolidin-1-yl)quinazoline], the “Selectivity, CB2 vs. CB1” value in experiment [1] is given as “+ (+ indicates > 10−fold)”. In addition, the EC50 in experiment [2] (setting [3]) is below 1000 nM.

Take `CCN(CC)CCNC(=O)c1sccc1S(=O)(=O)NCc1nc(N2CCCC2)c2ccccc2n1` [Example 9, N-(2-(Diethylamino)ethyl)-3-(N-((4-(pyrrolidin-1-yl)quinazolin-2-yl)methyl)sulfamoyl)thiophene-2-carboxamide]: in experiment [1], the “Selectivity, CB2 vs. CB1” value is “− (− indicates ≦ 10−fold)”. For the same compound, the EC50 in experiment [2] (setting [3]) was above 1000 nM.
